This note sets out measurements from patent US20240067662A1, “KRAS INHIBITORS” (Bristol-Myers Squibb Company, priority 2022, published 2024).

Molecules are shown by their SMILES.

The experiment deals with GMPPNP-loaded KRAS G12C (Homo sapiens, UniProt P01116, G12C). Kind of experiment: KRAS G12C RAF Disruption Assay (HTRF). The experiment is classed as biochemical. Particulars: recombinant GMPPNP-loaded KRAS G12C (5 nM), 20 min with compound; GST-RAF1 RBD (9 nM); HTRF signal; read-out: KRASG12C RAF Disruption Assay (IC50). The protocol:
KRAS^G12C RAF Disruption Assay
This is a functional assay that measures activity of compounds against KRAS-G12C^(ON), i.e., the active form of KRAS G12C. Recombinant GMPPNP-loaded KRAS G12C (5 nM) was treated with compound at room temperature for 20 minutes in assay buffer (50 mM Tris pH 7.5, 100 mM NaCl, 1 mM MgCl2, 1 mM DTT, 100ug/ml BSA). Recombinant GST-RAF1 RBD (9 nM) was added, and the reaction mixture was incubated for 20 minutes. SA-Tb (0.25 nM) was added, and the reaction mixture was incubated for 3 hours. HTRF signal was measured (PerkinElmer Envision), the signal ratio (λem 520/λem 495) was calculated, and IC50 values were calculated from the dose-response curve.
(In general: TR-FRET usually uses a lanthanide donor and a delayed reading to cut background.)

Sequence of GMPPNP-loaded KRAS G12C (P01116 1-188 isoform P01116-2 G12C): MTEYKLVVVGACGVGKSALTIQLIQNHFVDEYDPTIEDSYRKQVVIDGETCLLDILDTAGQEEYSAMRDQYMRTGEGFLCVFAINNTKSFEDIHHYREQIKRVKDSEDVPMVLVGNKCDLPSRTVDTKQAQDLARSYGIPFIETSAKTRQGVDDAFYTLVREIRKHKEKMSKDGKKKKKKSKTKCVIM

On to `C#Cc1c(F)ccc2cc(O)cc(-c3ncc4c(N5CC6CCC(C5)N6C(=O)/C(F)=C/c5nc(Br)cs5)nc(OC[C@@]56CCCN5C[C@H](F)C6)nc4c3F)c12` [Compound 11, (Z)-3-(4-bromothiazol-2-yl)-1-((JR, 5S)-3-(7-(8-ethynyl-7-fluoro-3-hydroxynaphthalen-1-yl)-8-fluoro-2-(((2R, 7aS)-2-fluorotetrahydro-1H-pyrrolizin-7a(5H)-yl)methoxy)pyrido[4,3-d]pyrimidin-4-yl)-3,8-diazabicyclo[3.2.1]octan-8-yl)-2-fluoroprop-2-en-1-one], for which the IC50 (as a rule, the concentration that gives 50% inhibition) worked out at 450 nM.

`Cn1ncc2cccc(-c3ncc4c(N5CCN(C(=O)/C(F)=C/c6ccccn6)CC5)nc(OC[C@@]56CCCN5C[C@H](F)C6)nc4c3F)c21` [Example 38, (Z)-2-fluoro-1-(4-(8-fluoro-2-(((2R, 7aS)-2-fluorotetrahydro-1H-pyrrolizin-7a(5H)-yl)methoxy)-7-(1-methyl-1H-indazol-7-yl)pyrido[4,3-d]pyrimidin-4-yl)piperazin-1-yl)-3-(pyridin-2-yl)prop-2-en-1-one]: the IC50 turned out to be 4700 nM.

On to `C#Cc1cccc2cccc(-c3nc(OC)c4c(N5CCN(C(=O)/C(F)=C/c6nccs6)CC5)nc(OC[C@@]56CCCN5C[C@H](F)C6)nc4c3F)c12` [Compound 110, (Z)-1-(4-(7-(8-ethynylnaphthalen-1-yl)-8-fluoro-2-(((2R, 7aS)-2-fluorotetrahydro-1H-pyrrolizin-7a(5H)-yl)methoxy)-5-methoxypyrido[4,3-d]pyrimidin-4-yl)piperazin-1-yl)-2-fluoro-3-(thiazol-2-yl)prop-2-en-1-one], for which the IC50 was found to be 180 nM.

For `N#Cc1c(N)sc2c(F)ccc(-c3ncc4c(N5CCN(C(=O)/C(F)=C/c6ccccn6)CC5)nc(OC[C@@]56CCCN5C[C@H](F)C6)nc4c3F)c12` [Compound 121, 2-amino-7-fluoro-4-(8-fluoro-4-(4-((Z)-2-fluoro-3-(pyridin-2-yl)acryloyl)piperazin-1-yl)-2-(((7aS)-2-fluorotetrahydro-1H-pyrrolizin-7a(5H)-yl)methoxy)pyrido[4,3-d]pyrimidin-7-yl)benzo[b]thiophene-3-carbonitrile], the IC50 came to 8 nM.

Take `C#Cc1cccc2cccc(-c3ncc4c(N5CCN(C(=O)/C(F)=C/c6ccccn6)C[C@H]5C)nc(OC[C@@]56CCCN5C[C@H](F)C6)nc4c3F)c12` [Example 75, (Z)-1-((3R)-4-(7-(8-ethynylnaphthalen-1-yl)-8-fluoro-2-(((2R, 7aS)-2-fluorotetrahydro-1H-pyrrolizin-7a(5H)-yl)methoxy)pyrido[4,3-d]pyrimidin-4-yl)-3-methylpiperazin-1-yl)-2-fluoro-3-(pyridin-2-yl)prop-2-en-1-one]: the half-inhibitory concentration (IC50) is 57 nM.

Consider `N#CC[C@H]1CN(c2nc(OC[C@@]34CCCN3C[C@H](F)C4)nc3c(F)c(-c4ccccc4C(F)(F)F)ncc23)CCN1C(=O)/C(F)=C/c1nccs1` [Example 32, 2-((S)-4-(8-fluoro-2-(((2R, 7aS)-2-fluorotetrahydro-1H-pyrrolizin-7a(5H)-yl)methoxy)-7-(2-(trifluoromethyl)phenyl)pyrido[4,3-d]pyrimidin-4-yl)-1-((Z)-2-fluoro-3-(thiazol-2-yl)acryloyl)piperazin-2-yl)acetonitrile], for which the IC50 was found to be 76 nM.

Consider `N#CC[C@H]1CN(c2nc(OC[C@@]34CCCN3C[C@H](F)C4)nc3c(F)c(-c4ccccc4C(F)(F)F)ncc23)CCN1C(=O)/C(F)=C/c1ccccn1` [Example 33, 2-((S)-4-(8-fluoro-2-(((2R, 7aS)-2-fluorotetrahydro-1H-pyrrolizin-7a(5H)-yl)methoxy)-7-(2-(trifluoromethyl)phenyl)pyrido[4,3-d]pyrimidin-4-yl)-1-((Z)-2-fluoro-3-(pyridin-2-yl)acryloyl)piperazin-2-yl)acetonitrile], for which the IC50 turned out to be 75 nM.

In the case of `C#Cc1c(F)ccc2cc(O)cc(-c3ncc4c(N5C[C@H]6CC[C@@H](C5)N6C(=O)/C(F)=C/c5cccc(COC)n5)nc(OC[C@@]56CCCN5C[C@H](F)C6)nc4c3F)c12` [Compound 15, (Z)-1-((1R, 5S)-3-(7-(8-ethynyl-7-fluoro-3-hydroxynaphthalen-1-yl)-8-fluoro-2-(((2R, 7aS)-2-fluorotetrahydro-1H-pyrrolizin-7a(5H)-yl)methoxy)pyrido[4,3-d]pyrimidin-4-yl)-3,8-diazabicyclo[3.2.1]octan-8-yl)-2-fluoro-3-(6-(methoxymethyl)pyridin-2-yl)prop-2-en-1-one], the IC50 turned out to be 60 nM.

Turning to `C#Cc1c(F)ccc2cc(O)cc(-c3ncc4c(N5C[C@H]6CC[C@@H](C5)N6C(=O)/C(F)=C/c5cncc(C)n5)nc(OC[C@@]56CCCN5C[C@H](F)C6)nc4c3F)c12` [Example 26, (Z)-1-((1R, 5S)-3-(7-(8-ethynyl-7-fluoro-3-hydroxynaphthalen-1-yl)-8-fluoro-2-(((2R, 7aS)-2-fluorotetrahydro-1H-pyrrolizin-7a(5H)-yl)methoxy)pyrido[4,3-d]pyrimidin-4-yl)-3,8-diazabicyclo[3.2.1]octan-8-yl)-2-fluoro-3-(6-methylpyrazin-2-yl)prop-2-en-1-one], the IC50 came out at 170 nM.

As to `CN1CCC[C@H]1COc1nc(N2CCN(C(=O)/C(F)=C/c3ccccn3)[C@@H](CC#N)C2)c2cnc(-c3cccc4ccccc34)c(F)c2n1` [Compound 19B, 2-((S)-4-(8-fluoro-2-(((S)-1-methylpyrrolidin-2-yl)methoxy)-7-(naphthalen-1-yl)pyrido[4,3-d]pyrimidin-4-yl)-1-((Z)-2-fluoro-3-(pyridin-2-yl)acryloyl)piperazin-2-yl)acetonitrile], the IC50 turned out to be 270 nM.

Take `N#CC[C@H]1CN(c2nc(OC[C@@]34CCCN3C[C@H](F)C4)nc3c(F)c(-c4cc(F)ccc4F)ncc23)CCN1C(=O)/C(F)=C/c1nccs1` [Example 41, 2-((S)-4-(7-(2,5-difluorophenyl)-8-fluoro-2-(((2R, 7aS)-2-fluorotetrahydro-1H-pyrrolizin-7a(5H)-yl)methoxy)pyrido[4,3-d]pyrimidin-4-yl)-1-((Z)-2-fluoro-3-(thiazol-2-yl)acryloyl)piperazin-2-yl)acetonitrile]: the IC50 was 760 nM.

Consider `C#Cc1cccc2cccc(-c3ncc4c(N(C)C5CCN(C(=O)/C(F)=C/c6nccs6)C5C)nc(OC[C@@]56CCCN5C[C@H](F)C6)nc4c3F)c12` (single isomer, unassigned) [Example 73 trans isomer 2], for which the IC50 was 5700 nM.

Turning to `C#Cc1cccc2c(F)ccc(-c3ncc4c(N5CCN(C(=O)/C(F)=C/c6ncccn6)CC5)nc(OC[C@@]56CCCN5C[C@H](F)C6)nc4c3F)c12` [Compound 88, (Z)-1-(4-(7-(8-ethynyl-4-fluoronaphthalen-1-yl)-8-fluoro-2-(((2R, 7aS)-2-fluorotetrahydro-1H-pyrrolizin-7a(5H)-yl)methoxy)pyrido[4,3-d]pyrimidin-4-yl)piperazin-1-yl)-2-fluoro-3-(pyrimidin-2-yl)prop-2-en-1-one], the IC50 was 1000 nM.

Consider `N#CC[C@H]1CN(c2nc(OC[C@@]34CCCN3C[C@H](F)C4)nc3c(F)c(-c4cccc(O)c4)ncc23)CCN1C(=O)/C(F)=C/c1nccs1` [Example 72, 2-((S)-4-(8-fluoro-2-(((2R, 7aS)-2-fluorotetrahydro-1H-pyrrolizin-7a(5H)-yl)methoxy)-7-(3-hydroxyphenyl)pyrido[4,3-d]pyrimidin-4-yl)-1-((Z)-2-fluoro-3-(thiazol-2-yl)acryloyl)piperazin-2-yl)acetonitrile], for which the IC50 came to 440 nM.
